Drawing on patent publication US20250042897A1, “HETEROCYCLIC COMPOUNDS AS TRIGGERING RECEPTOR EXPRESSED ON MYELOID CELLS 2 AGONISTS AND METHODS OF USE” (Vigil Neuroscience, Inc., priority 2021, published 2025), this text covers EC50 for twelve molecules.

A value given as a limit tells only on which side of the number the result lay.

The target in one experiment is T1, human TREM2 (Homo sapiens, UniProt Q9NZC2).
T1 construct: expressed in transfected cells; host or cells: HEK293T
T1 sequence (Q9NZC2 19-230): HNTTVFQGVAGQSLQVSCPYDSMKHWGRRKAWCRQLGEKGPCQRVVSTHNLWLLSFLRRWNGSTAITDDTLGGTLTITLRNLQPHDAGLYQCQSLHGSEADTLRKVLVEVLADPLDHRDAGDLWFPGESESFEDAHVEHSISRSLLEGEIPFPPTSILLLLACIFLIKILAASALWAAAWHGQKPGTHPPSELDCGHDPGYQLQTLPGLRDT
T1 sequence (O43914 22-113 partner): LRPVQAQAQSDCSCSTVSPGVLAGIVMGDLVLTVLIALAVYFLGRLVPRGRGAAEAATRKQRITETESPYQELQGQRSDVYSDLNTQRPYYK
Briefly: hTREM2 agonist potency by cellular Syk phosphorylation (AlphaLisa) in HEK293T-hTREM2 cells. Type of experiment: cell-based. The settings on record: Table D-2; HEK293 cells expressing human TREM2 and DAP12; pSyk AlphaLisa; 45 minutes at room temperature. As for the experimental part:
In Vitro Measurement of Triggering Receptor Expressed on Myeloid Cells 2 Activity Using Cellular Phosphorylation of Spleen Tyrosine Kinase (“Syk”) Assays
Measurement of TREM2 agonist potency was done using a HEK cell line expressing human TREM2 and DAP12 (HEK293T-hTREM2 cells). Binding of small molecules to, and activation of, TREM2 increases the phosphorylation of Syk. The resultant levels of Syk phosphorylation are measured using a commercial AlphaLisa reagent kit. To perform the assay, HEK-hTREM2 cells were plated at 14,000 cells per well in a 384 well plate, in 25 μL of complete growth media and incubated at 37° C., 5% CO2 for 20-24 hours.
Prior to the assay, test compounds were diluted in the 384 well plates in assay buffer and allowed to equilibrate for 30 minutes. Growth media was removed from cell plates by inversion on blotting paper, and 25 μL of test articles in assay buffer was added to cells. Cells were incubated for 45 minutes at room temperature. After 45 minutes, assay buffer was removed and 10 μL of lysis buffer was added. Plates were shaken for 20 minutes at 350 RPM at room temperature. After complete lysis, AlphaLisa reagents were added to the lysate, and fluorescence intensity was measured using a Perkin Elmer Envision plate reader. Intensities were used to generate a standard curve, and % activation was calculated. Curve fitting was performed using Prism v9 software, log (agonist) vs response-variable slope (four parameters), and EC50s were calculated from the curve fit.
The results presented in Table D have been generated with the in vitro assay described above. This assay may be used to test any of the compounds described herein to assess and characterize a compound's ability to act as an agonist of TREM2.
(In general: Alpha assays give light when donor and acceptor beads are brought close together.)
As for `Cc1cc([C@H]2CC(c3nc(-c4ccc(Cl)cc4F)c4nc(C)n(C)c(=O)c4n3)CCO2)ccn1` (stereo partly drawn) [I-188, 8-(4-chloro-2-fluoro-phenyl)-2,3-dimethyl-6-[(2R)-2-(2-methyl-4-pyridyl)tetrahydropyran-4-yl]pyrimido[5,4-d]pyrimidin-4-one], the EC50 (usually the concentration giving half of the maximal effect) is no more than 0.05 µM.

With `CCn1ncc2c(-c3ccc(Cl)cc3F)nc(N3C[C@@H](C)O[C@@H](c4cnn(C5CC5)c4)C3)nc2c1=O` [I-193, 4-(4-chloro-2-fluorophenyl)-2-((2S, 6R)-2-(1-cyclopropyl-1H-pyrazol-4-yl)-6-methylmorpholino)-7-ethyl-pyrimido[4,5-d]pyridazin-8 (7H)-one], the EC50 was no more than 0.05 µM.

In the case of `C[C@@H]1CN(c2nc(-c3ccc(C(F)(F)F)nc3)c3cnn(C)c(=O)c3n2)C[C@H](c2cnn(C3CC3)c2)O1` [I-198, 2-[(2S, 6R)-2-(1-cyclopropylpyrazol-4-yl)-6-methyl-morpholin-4-yl]-7-methyl-4-[6-(trifluoromethyl)-3-pyridyl]pyrimido[4,5-d]pyridazin-8-one], the EC50 is no more than 0.05 µM.

For `Cc1ccc(-c2nc(N3C[C@@H](C)O[C@@H](c4cnn(C5CC5)c4)C3)nc3c(=O)n(C)ncc23)c(F)c1` [I-203, 2-((2S,6R)-2-(1-cyclopropyl-1H-pyrazol-4-yl)-6-methylmorpholino)-4-(2-fluoro-4-methylphenyl)-7-methylpyrimido[4,5-d]pyridazin-8 (7H)-one], the EC50 is no more than 0.05 µM.

As for `Cc1nc2c(C3CCCCC3)nc(N3C[C@@H](C)O[C@@H](c4cnn(C5CC5)c4)C3)nc2c(=O)n1C` [I-208, 8-cyclohexyl-6-((2S,6R)-2-(1-cyclopropyl-1H-pyrazol-4-yl)-6-methylmorpholino)-2,3-dimethylpyrimido[5,4-d]pyrimidin-4 (3H)-one], the EC50 was no more than 0.05 µM.

Molecule `Cc1cc([C@H]2CN(c3nc(-c4ccc(F)cc4F)c4nc(C)n(C)c(=O)c4n3)C[C@@H](C)O2)ccn1` [I-213, 8-(2,4-difluorophenyl)-2,3-dimethyl-6-[(2R, 6S)-2-methyl-6-(2-methyl-4-pyridyl)morpholin-4-yl]pyrimido[5,4-d]pyrimidin-4-one] yielded an EC50 of no more than 0.05 µM.

For the molecule `C[C@@H]1CN(c2nc(-c3cc(F)c(F)cc3F)c3cnn(C)c(=O)c3n2)C[C@H](c2cnn(C3CC3)c2)O1` [I-218, 2-((2S,6R)-2-(1-cyclopropyl-1H-pyrazol-4-yl)-6-methylmorpholino)-7-methyl-4-(2,4,5-trifluorophenyl)pyrimido[4,5-d]pyridazin-8 (7H)-one], the EC50 is no more than 0.05 µM.

Still in this experiment, the particulars now being: Table D; HEK293 cells expressing human TREM2 and DAP12; pSyk AlphaLisa; 45 minutes at room temperature.
In turn, `Cc1nc2cc(N3CCOC(c4cc[nH]c(=O)c4)C3)nc(-c3ccc(F)cc3F)c2c(=O)n1C` (stereo not drawn) [compound 1, 5-(2,4-difluorophenyl)-2,3-dimethyl-7-(2-(2-oxo-1,2-dihydropyridin-4-yl)morpholino)pyrido[4,3-d]pyrimidin-4(3H)-one] showed an EC50 of 0.05 to 0.5 µM.

In turn, `Cc1nc2cc(N3CCO[C@@H](c4cc[nH]c(=O)c4)C3)nc(-c3ccc(F)cc3F)c2c(=O)n1C` [compound 2, (S)-5-(2,4-difluorophenyl)-2,3-dimethyl-7-(2-(2-oxo-1,2-dihydropyridin-4-yl)morpholino)pyrido[4,3-d]pyrimidin-4(3H)-one] yielded an EC50 of 0.05 to 0.5 µM.

In turn, `Cc1nc2cc(N3CCO[C@H](c4cc[nH]c(=O)c4)C3)nc(-c3ccc(F)cc3F)c2c(=O)n1C` [compound 3, (R)-5-(2,4-difluorophenyl)-2,3-dimethyl-7-(2-(2-oxo-1,2-dihydropyridin-4-yl)morpholino)pyrido[4,3-d]pyrimidin-4(3H)-one] yielded an EC50 of 3 to 100 µM.

The molecule `Cc1nc2cc(N3CCOC(c4cc[nH]c(=O)c4)C3)nc(C34CC(C(F)(F)F)(C3)C4)c2c(=O)n1C` (stereo not drawn) [compound 4, 2,3-dimethyl-7-(2-(2-oxo-1,2-dihydropyridin-4-yl)morpholino)-5-(3-(trifluoromethyl)bicyclo[1.1.1]pentan-1-yl)pyrido[4,3-d]pyrimidin-4(3H)-one] displayed an EC50 of no more than 0.05 µM.

The molecule `Cc1nc2nc(-c3ccc(F)cc3F)cc(C3CCOC(c4cnn(C5CC5)c4)C3)c2c(=O)n1C` (stereo not drawn) [compound 5, 5-(2-(1-cyclopropyl-1H-pyrazol-4-yl)tetrahydro-2H-pyran-4-yl)-7-(2,4-difluorophenyl)-2,3-dimethylpyrido[2,3-d]pyrimidin-4(3H)-one] registered an EC50 of 0.5 to 3 µM.
